Where a SMILES comes first, the peptide text is derived from it. Where no end group is shown, it is not given here. [ ]: non-standard residue; d: D form.
What was measured:
MDA-MB-231 cells [1] = experiment: Caspase 3/7 activity (Caspase-Glo 3/7) in MDA-MB-231 cells; type: cell-based, human; conditions: test peptides at 10 μM, 18 hours, relative to DMSO control
Procedure: The effect of the peptides on cell death/survival can be assessed using a caspase-3 assay. Peptides were dissolved with DMSO at 10 mM stock. […] Staurosporine (Selleckchem) was dissolved with DMSO at 1 mM stock. Caspase-Glo 3/7 Assay Reagent was purchased from Promega (Madison, Wis.). MDA-MB-231 human breast cancer cell line was purchased from American Type Culture Collection (Manassas, Va.). MDA-MB-231 cells were grown in DMEM Medium supplemented with 10% FBS. 100 μg/ml penicillin and 100 μg/ml streptomycin were added to the culture medium. […] 25 μl of Caspase-Glo 3/7 Assay Reagent was added to each well and incubated at 37° C., 5% CO2 for 1 hour. Luminescence for each sample well on the plate was measured by Envision 2104 Multilabel Reader (PerkinElmer, Santa Clara, Calif.). Activity was calculated relative to DMSO control.

3T3-L1 adipocytes = experiment: Free fatty acid levels in cultured 3T3-L1 adipocytes stimulated with isoproterenol; conditions: for Free Fatty Acid Levels, Percent of Control Value (Percent Isoproterenol Control): test peptides 25 μM, 20-22 hours then 3 hours with isoproterenol (1 nM)
Procedure: Mouse 3T3-L1 adipocytes were seeded at 3,000 cells per well in 96-well plates in Pre-adipocyte Medium (Zen-Bio, Durham, N.C.) and grown to confluence at 37° C. in a humidified atmosphere of 5% CO2/95% air. Two days after confluence, cells were placed in Adipocyte Differentiation Medium (Zen-Bio, Durham, N.C.) and cultured for three additional days at 37° C. in a humidified atmosphere of 5% CO2/95% air. The culture media was then replaced with Adipocyte Maintenance Medium (Zen-Bio) and the cells maintained for an additional 9-12 days at 37° C. in a humidified atmosphere of 5% CO2/95% air with partial medium replacement every other day. Following 12-15 days' differentiation, test peptides were added to a final concentration of 25 μM and incubated for 20-22 hours in Adipocyte Maintenance Medium. After 20-22 hours, isoproterenol (1 nM) was added to all wells except untreated controls and test peptides were replenished. Cells were incubated for a further 3 hours in Assay Buffer (Zen-Bio). Free fatty acid concentrations in the media were determined using a Free Fatty Acid Assay Kit (Zen-Bio) according to the manufacturer's instructions using a plate reader (540 nm). Absorbance values were corrected for untreated background and expressed relative to isoproterenol treated cells. Treatment with isoproterenol (1 nM) alone was used as the free fatty acid level stimulatory control. The relative standard deviation of the isoproterenol control was <10%.

MDA-MB-231 cells [2] = experiment: Cell viability, MTS assay in MDA-MB-231 cells; type: cell-based, human; conditions: for MTS Assay (cell viability), Percent of Control Activity: human, 72 hours
Procedure: Test compounds and reference compound staurosporine (Selleckchem) were all dissolved with DMSO at 10 mM stock. […] Activity was calculated relative to DMSO control. […] Cell viability was 3% of the DMSO control value for Staurosporine (10 uM).

MCF-7 cells = experiment: Cell viability, MTS assay in MCF-7 cells; conditions: for MTS Assay (cell viability), Percent of Control Activity: human, 72 hours, 10 µM
Procedure: Peptides and reference compound staurosporine (Selleckchem) were dissolved with DMSO at 10 mM stock. CellTiter 96® AQueous One Solution Reagent (MTS assay reagent) was purchased from Promega (Madison, Wis.). MCF-7 human breast cancer cell line was purchased from American Type Culture Collection (Manassas, Va.). MCF-7 cells were grown in EMEM Medium supplemented with 10% FBS and 0.01 mg/ml human recombinant insulin. 100 μg/ml penicillin and 100 μg/ml streptomycin were added to the culture medium. […] 5 μl of CellTiter 96® AQueous One Solution Reagent (MTS assay reagent) was added to each well and incubated at 37° C., 5% CO2 for 5 hours. Absorbance at 492 nm was recorded by Envision 2104 Multilabel Reader. Treatment with DMSO alone was used as the cell viability activity control.

MNIVVGKRLIIKVDATMDFT [compound 7]
Caspase 3/7 Activity, Percent of Control Activity (MDA-MB-231 cells [1]): 73%
Free Fatty Acid Levels, Percent of Control Value (Percent Isoproterenol Control) (3T3-L1 adipocytes): 94%
MTS Assay (cell viability), Percent of Control Activity (MDA-MB-231 cells [2]): 75%
MTS Assay (cell viability), Percent of Control Activity (MCF-7 cells): 59%

CC[C@H](C)[C@H](NC(=O)[C@H](CCC(=O)O)NC(=O)[C@H](CS)NC(=O)[C@H](CCCNC(=N)N)NC(=O)[C@H](Cc1ccccc1)NC(=O)[C@H](CS)NC(=O)[C@H](C)NC(=O)[C@H](CC(C)C)NC(=O)[C@@H](N)CCSC)C(=O)N[C@H](C(=O)N[C@H](C(=O)NCC(=O)N[C@@H](CO)C(=O)N[C@@H](Cc1c[nH]c2ccccc12)C(=O)N[C@@H](CS)C(=O)N[C@@H](Cc1c[nH]c2ccccc12)C(=O)N[C@@H](CO)C(=O)N[C@@H](CC(C)C)C(=O)N[C@@H](CO)C(=O)O)C(C)C)C(C)C [compound 2] (H-MLACFRCEIVVGSWCWSLS-OH; N-terminus and C-terminus assumed)
Caspase 3/7 Activity, Percent of Control Activity (MDA-MB-231 cells [1]): 95%
Free Fatty Acid Levels, Percent of Control Value (Percent Isoproterenol Control) (3T3-L1 adipocytes): 114%
MTS Assay (cell viability), Percent of Control Activity (MDA-MB-231 cells [2]): 78%
MTS Assay (cell viability), Percent of Control Activity (MCF-7 cells): 55%

19 (HHRILTVIYKLRPKH) [compound 19]
Free Fatty Acid Levels, Percent of Control Value (Percent Isoproterenol Control) (3T3-L1 adipocytes): 78%

4 (ACFRCEIVVGSWCWSLS; not fully specified; cysteine pairing not given here) [compound 4]
Free Fatty Acid Levels, Percent of Control Value (Percent Isoproterenol Control) (3T3-L1 adipocytes): 116%

15 (WVSEPHCVVVN) [compound 15]
Free Fatty Acid Levels, Percent of Control Value (Percent Isoproterenol Control) (3T3-L1 adipocytes): 97%

MVITFIWSCTKIFGA [compound 22]
Caspase 3/7 Activity, Percent of Control Activity (MDA-MB-231 cells [1]): 69%
Free Fatty Acid Levels, Percent of Control Value (Percent Isoproterenol Control) (3T3-L1 adipocytes): 133%
MTS Assay (cell viability), Percent of Control Activity (MDA-MB-231 cells [2]): 81%
MTS Assay (cell viability), Percent of Control Activity (MCF-7 cells): 58%

14 (WWVSEPHCVVVN) [compound 14]
Free Fatty Acid Levels, Percent of Control Value (Percent Isoproterenol Control) (3T3-L1 adipocytes): 102%

MVHHRILTVIYKLRPKH [compound 17]
Caspase 3/7 Activity, Percent of Control Activity (MDA-MB-231 cells [1]): 74%
Free Fatty Acid Levels, Percent of Control Value (Percent Isoproterenol Control) (3T3-L1 adipocytes): 88%
MTS Assay (cell viability), Percent of Control Activity (MDA-MB-231 cells [2]): 82%
MTS Assay (cell viability), Percent of Control Activity (MCF-7 cells): 60%

8 (NIVVGKRLIIKVDATMDFT; not fully specified) [compound 8]
Free Fatty Acid Levels, Percent of Control Value (Percent Isoproterenol Control) (3T3-L1 adipocytes): 81%

18 (VHHRILTVIYKLRPKH) [compound 18]
Free Fatty Acid Levels, Percent of Control Value (Percent Isoproterenol Control) (3T3-L1 adipocytes): 75%

10 (NIVV[dA]KRLIIKVDATMDFT) [compound 10]
Free Fatty Acid Levels, Percent of Control Value (Percent Isoproterenol Control) (3T3-L1 adipocytes): 91%

20 (HRILTVIYKLRP[dA]H) [compound 20]
Free Fatty Acid Levels, Percent of Control Value (Percent Isoproterenol Control) (3T3-L1 adipocytes): 27%

23 (VITFIWSCTKIFGA) [compound 23]
Free Fatty Acid Levels, Percent of Control Value (Percent Isoproterenol Control) (3T3-L1 adipocytes): 128%

13 (WWVSEPHCVVVNM) [compound 13]
Free Fatty Acid Levels, Percent of Control Value (Percent Isoproterenol Control) (3T3-L1 adipocytes): 109%

3 (LACFRCEIVVGSWCWSLS) [compound 3]
Free Fatty Acid Levels, Percent of Control Value (Percent Isoproterenol Control) (3T3-L1 adipocytes): 109%

MWWVSEPHCVVVNM [compound 12]
Caspase 3/7 Activity, Percent of Control Activity (MDA-MB-231 cells [1]): 56%
Free Fatty Acid Levels, Percent of Control Value (Percent Isoproterenol Control) (3T3-L1 adipocytes): 112%
MTS Assay (cell viability), Percent of Control Activity (MDA-MB-231 cells [2]): 78%
MTS Assay (cell viability), Percent of Control Activity (MCF-7 cells): 63%

Insulin [reference compound]
Free fatty acid levels, % of the isoproterenol control value (3T3-L1 adipocytes; insulin 100 nM, positive control): < 5%

24 (VITFIWSCTKIFG) [compound 24]
Free Fatty Acid Levels, Percent of Control Value (Percent Isoproterenol Control) (3T3-L1 adipocytes): 90%

5 ([dA]CFRCEIVVGSWCWSLS; cysteine pairing not given here) [compound 5]
Free Fatty Acid Levels, Percent of Control Value (Percent Isoproterenol Control) (3T3-L1 adipocytes): 113%

CN[C@@H]1C[C@H]2O[C@@](C)([C@@H]1OC)n1c3ccccc3c3c4c(c5c6ccccc6n2c5c31)C(=O)NC4 [staurosporine, reference compound]
Cell viability, % of the DMSO control value (MDA-MB-231 cells [2]; MDA-MB-231 cells, Staurosporine 10 uM, positive control): 3%
Cell viability, % of the background corrected DMSO control value (MCF-7 cells; MCF-7 cells, staurosporine 10 uM, positive control): < 5%

25 (VITFIWSCTKIF) [compound 25]
Free Fatty Acid Levels, Percent of Control Value (Percent Isoproterenol Control) (3T3-L1 adipocytes): 115%

9 (NIVVGKRLIIKVD[dA]TMDFT) [compound 9]
Free Fatty Acid Levels, Percent of Control Value (Percent Isoproterenol Control) (3T3-L1 adipocytes): 103%

From patent publication US20220306691A1, “THERAPEUTIC PEPTIDES” (COHBAR, INC., priority 2019, published 2022)
